SMILES strings stand for the structures. Where only a bound is given, the exact number is not on record here.

For one assay, the system named is MOLT-4 cells. Put plainly: MOLT-4 cell viability, CTG assay. The class given is cell-based. The conditions noted are these: Homo sapiens, MOLT-4, 48 h. An excerpt: The MTT colorimetric assay is based on the mitochondrial reduction of tetrazolium salt by living cells. The viable cell number is proportional to the production of formazan salts, which can be read spectrophotometrically at 540 nm. The CTG luminescent assay (CellTiter GLO, Promega) is based on a reagent which lyses cells and measures total adenosine triphosphate (ATP) content. The viable cell number is proportional to the production of ATP.
MOLT-4 cells were purchased from ATCC and cultivated in RPMI 1640 supplemented with 10% heat inactivated fetal bovine serum, penicillin (100 IU/mi), streptomycin (100 μg/ml) and L-glutamine (2 mM). Cells were cultured at 37° C. in a humidified atmosphere containing 5% […].
For CTG assay, cells were seeded in 384 microwell plates (40 μL per well) and exposed to the compounds for 48 h (11-point serial dilution with 5-fold factor, triplicates). At the end of incubation time, 40 μL of CTG solution were added per well. Wells were mixed thoroughly, and plates were incubated at room temperature for 10 minutes to stabilize luminescent signals prior to reading using a luminescence reader (PHERAStar FSX Reader, BMG Labtech).
IC50, were calculated using standard four-parametric curve fitting. IC50 is defined as the compound concentration at which the MTT or CTG signal is reduced to 50% of that measured for the control. Results shown in Table 14 represent the mean of at least 2 independent experiments.

The target in a further assay is T1, Bcl-xL (Homo sapiens, UniProt Q07817).
T1 construct: Measured levels of Bcl-xL protein of HCT116 cells treated with the tested compounds; host or cells: HCT116
T1 sequence (Q07817 whole entry): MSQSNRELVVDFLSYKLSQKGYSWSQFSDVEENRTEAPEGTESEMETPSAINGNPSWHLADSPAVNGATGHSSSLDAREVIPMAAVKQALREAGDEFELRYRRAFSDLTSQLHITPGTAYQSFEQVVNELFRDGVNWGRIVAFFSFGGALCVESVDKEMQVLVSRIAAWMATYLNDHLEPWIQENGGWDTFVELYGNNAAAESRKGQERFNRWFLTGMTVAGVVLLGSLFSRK
The assay can be described thus: HCT116 Bcl-xL degradation, capillary-based immunoassay (WES). It is filed as cell-based. The conditions noted are these: for DC50: HCT116, 24 h, 9-point serial dilution. The method, then: HCT116 cells were purchased from ATCC and cultivated in RPMI 1640 supplemented with 10% heat inactivated fetal bovine serum, penicillin (100 IU/mi), streptomycin (100 μg/ml) and L-glutamine (2 mM). Cells were cultured at 37° C. in a humidified atmosphere containing 5% CO2. Cells were seeded in 96 microwell plates, 24 h later cells were treated with compounds (2-point 10/100 nM and/or 9-point serial dilution to determine DC50; quadruplicates) during 24 h and harvested in lysis buffer containing 10 mM Hepes (pH 7.5), 150 mM KCl, 5 mM MgCl2, 1 mM EDTA, 0.4% TritonX100, protease and phosphatase inhibitors cocktails (Calbiochem).
Protein concentration in the supernatants was determined using the Pierce BCA protein assay kit (Thermo Fisher Scientific). Lysates (1.5 μg/μL) were analyzed using an automated capillary electrophoresis WES system with 2-40 kDa Wes Separation Module (25 capillary cartridges, Proteinsimple), in accordance with the manufacturer's protocols. Antibodies against the following proteins were used: Bcl-xL (#2764, Cell Signaling Technology, 1:50) and cofilin (#5175, Cell Signaling Technology, 1:1000). Signals were detected with an HRP-conjugated secondary anti-rabbit antibody (#042-206, Proteinsimple) and were quantified using Compass software (version 4.0, Proteinsimple).
Bcl-xL level was calculated by normalizing Bcl-xL values to cofilin and expressed as a percentage of the normalized value of the untreated cells. DC50 were calculated using standard four-parametric curve fitting. DC50 is defined as the compound concentration at which Bcl-xL is reduced to 50% of that measured for the control. Measured levels of Bcl-xL protein of HCT116 cells treated with the tested compounds at 2-point 10 nM/100 nM and/or 9-point for DC50 determination are shown in Table 15.

Compound `Cc1cc(N(CCCCN(C)C(=O)CCCCCCCCNc2cccc3c2C(=O)N(C2CCC(=O)NC2=O)C3=O)c2ccc(-c3cnn(CC45CC6(C)CC(C)(C4)CC(OCCN(C)C)(C6)C5)c3C)c(C(=O)O)n2)nnc1Nc1nc2ccccc2s1` (centres unmarked) [Example 91, 6-[[6-(1,3-benzothiazol-2-ylamino)-5-methyl-pyridazin-3-yl]-[4-[9-[[2-(2,6-dioxo-3-piperidyl)-1,3-dioxo-isoindolin-4-yl]amino]nonanoyl-methyl-amino]butyl]amino]-3-[1-[[3-[2-(dimethylamino)ethoxy]-5,7-dimethyl-1-adamantyl]methyl]-5-methyl-pyrazol-4-yl]pyridine-2-carboxylic acid] registered an IC50 in the assay on MOLT-4 cells of 12.7 nM. This compound also returned a DC50 at Bcl-xL of 0.407 nM.
In the case of `Cc1c(Nc2nc3ccccc3s2)nnc2c1CCCN2c1ccc(-c2cnn(CC34CC5(C)CC(C)(C3)CC(OCCN(C)CCCCCCOc3cccc6c3C(=O)N(C3CCC(=O)NC3=O)C6=O)(C5)C4)c2C)c(C(=O)O)n1` (centres unmarked) [Example 141, 6-[3-(1,3-benzothiazol-2-ylamino)-4-methyl-6,7-dihydro-5H-pyrido[2,3-c]pyridazin-8-yl]-3-[1-[[3-[2-[6-[2-(2,6-dioxo-3-piperidyl)-1,3-dioxo-isoindolin-4-yl]oxyhexyl-methyl-amino]ethoxy]-5,7-dimethyl-1-adamantyl]methyl]-5-methyl-pyrazol-4-yl]pyridine-2-carboxylic acid], half-maximal inhibition with MOLT-4 cells (IC50) required 10.4 nM. Also, on Bcl-xL, the half-maximal degradation concentration (DC50) is greater than 316 nM.
For `Cc1c(Nc2nc3ccccc3s2)nnc2c1CCCN2c1ccc(-c2cnn(CC34CC5(C)CC(C)(C3)CC(OCCN(C)CCCCCCCCCCCC(=O)N3CCC(c6ccc7c(c6)CN(C6CCC(=O)NC6=O)C7=O)CC3)(C5)C4)c2C)c(C(=O)O)n1` (centres unmarked) [Example 69, 6-[3-(1,3-benzothiazol-2-ylamino)-4-methyl-6,7-dihydro-5H-pyrido[2,3-c]pyridazin-8-yl]-3-[1-[[3-[2-[[12-[4-[2-(2,6-dioxo-3-piperidyl)-1-oxo-isoindolin-5-yl]-1-piperidyl]-12-oxo-dodecyl]-methyl-amino]ethoxy]-5,7-dimethyl-1-adamantyl]methyl]-5-methyl-pyrazol-4-yl]pyridine-2-carboxylic acid], in that order: 5.14 nM and 0.711 nM.
In turn, `Cc1c(Nc2nc3ccccc3s2)nnc2c1CCCN2c1ccc(-c2cnn(CC34CC5(C)CC(C)(C3)CC(OCCN(C)CCCCCCCCCC(=O)N3CCC(c6ccc7c(c6)CN(C6CCC(=O)NC6=O)C7=O)CC3)(C5)C4)c2C)c(C(=O)O)n1` (centres unmarked) [Example 70, 6-[3-(1,3-benzothiazol-2-ylamino)-4-methyl-6,7-dihydro-5H-pyrido[2,3-c]pyridazin-8-yl]-3-[1-[[3-[2-[[10-[4-[2-(2,6-dioxo-3-piperidyl)-1-oxo-isoindolin-5-yl]-1-piperidyl]-10-oxo-decyl]-methyl-amino]ethoxy]-5,7-dimethyl-1-adamantyl]methyl]-5-methyl-pyrazol-4-yl]pyridine-2-carboxylic acid] yielded an IC50 in the assay with MOLT-4 cells of 7.48 nM. Moreover, the remaining activity at 0.01 µM on Bcl-xL (HCT-116, HCT116, 10 nM, 24 h, % of untreated cells) amounted to 101%. Moreover, on Bcl-xL (HCT-116, HCT116, 100 nM, 24 h, % of untreated cells), the remaining activity at 0.1 µM was 90%.
On to `Cc1c(Nc2nc3ccccc3s2)nnc2c1CCCN2c1ccc(-c2cnn(CC34CC5(C)CC(C)(C3)CC(OCCN(C)CCCCCCCCCCCCC(=O)N3CCC(c6ccc7c(c6)CN(C6CCC(=O)NC6=O)C7=O)CC3)(C5)C4)c2C)c(C(=O)O)n1` (centres unmarked) [Example 78, 6-[3-(1,3-benzothiazol-2-ylamino)-4-methyl-6,7-dihydro-5H-pyrido[2,3-c]pyridazin-8-yl]-3-[1-[[3-[2-[[13-[4-[2-(2,6-dioxo-3-piperidyl)-1-oxo-isoindolin-5-yl]-1-piperidyl]-13-oxo-tridecyl]-methyl-amino]ethoxy]-5,7-dimethyl-1-adamantyl]methyl]-5-methyl-pyrazol-4-yl]pyridine-2-carboxylic acid], for which the IC50 in the assay with MOLT-4 cells is 4.42 nM. The same compound showed a DC50 at Bcl-xL of 0.121 nM.
In the assay on MOLT-4 cells, `Cc1c(Nc2nc3ccccc3s2)nnc2c1CCCN2c1ccc(-c2cnn(CC34CC5(C)CC(C)(C3)CC(OCCN(C)CCCCCCCCOc3cccc6c3C(=O)N(C3CCC(=O)NC3=O)C6=O)(C5)C4)c2C)c(C(=O)O)n1` (centres unmarked) [Example 143, 6-[3-(1,3-benzothiazol-2-ylamino)-4-methyl-6,7-dihydro-5H-pyrido[2,3-c]pyridazin-8-yl]-3-[1-[[3-[2-[8-[2-(2,6-dioxo-3-piperidyl)-1,3-dioxo-isoindolin-4-yl]oxyoctyl-methyl-amino]ethoxy]-5,7-dimethyl-1-adamantyl]methyl]-5-methyl-pyrazol-4-yl]pyridine-2-carboxylic acid] came in with an IC50 of 5.28 nM. At Bcl-xL, this compound yielded a DC50 greater than 316 nM.
The compound `Cc1c(Nc2nc3ccccc3s2)nnc2c1CCCN2c1ccc(-c2cnn(CC34CC5(C)CC(C)(C3)CC(OCCN(C)CCCCCCCCCCCCCCCC(=O)N3CCC(c6ccc7c(c6)CN(C6CCC(=O)NC6=O)C7=O)CC3)(C5)C4)c2C)c(C(=O)O)n1` (centres unmarked) [Example 74, 6-[3-(1,3-benzothiazol-2-ylamino)-4-methyl-6,7-dihydro-5H-pyrido[2,3-c]pyridazin-8-yl]-3-[1-[[3-[2-[[16-[4-[2-(2,6-dioxo-3-piperidyl)-1-oxo-isoindolin-5-yl]-1-piperidyl]-16-oxo-hexadecyl]-methyl-amino]ethoxy]-5,7-dimethyl-1-adamantyl]methyl]-5-methyl-pyrazol-4-yl]pyridine-2-carboxylic acid] gave a DC50 at Bcl-xL of 0.133 nM.
Consider `Cc1c(Nc2nc3ccccc3s2)nnc2c1CCCN2c1ccc(-c2cnn(CC34CC5(C)CC(C)(C3)CC(OCCN(C)CCCCCCCCCCC(=O)N3CCC(c6ccc7c(c6)CN(C6CCC(=O)NC6=O)C7=O)CC3)(C5)C4)c2C)c(C(=O)O)n1` (centres unmarked) [Example 75, 6-[3-(1,3-benzothiazol-2-ylamino)-4-methyl-6,7-dihydro-5H-pyrido[2,3-c]pyridazin-8-yl]-3-[1-[[3-[2-[[11-[4-[2-(2,6-dioxo-3-piperidyl)-1-oxo-isoindolin-5-yl]-1-piperidyl]-11-oxo-undecyl]-methyl-amino]ethoxy]-5,7-dimethyl-1-adamantyl]methyl]-5-methyl-pyrazol-4-yl]pyridine-2-carboxylic acid], for which half-maximal inhibition with MOLT-4 cells (IC50) required 5.85 nM.
Take `CN[C@@H](C)C(=O)N[C@H](C(=O)N1CCC[C@H]1c1nc(C(=O)c2cccc(OCCCCN(C)CCOC34CC5(C)CC(C)(CC(Cn6ncc(-c7ccc(N8CCCc9c8nnc(Nc8nc%10ccccc%10s8)c9C)nc7C(=O)O)c6C)(C5)C3)C4)c2)cs1)C1CCCCC1` [Example 99, 6-[3-(1,3-benzothiazol-2-ylamino)-4-methyl-6,7-dihydro-5H-pyrido[2,3-c]pyridazin-8-yl]-3-[1-[[3-[2-[4-[3-[2-[(2S)-1-[(2S)-2-cyclohexyl-2-[[(2S)-2-(methylamino)propanoyl]amino]acetyl]pyrrolidin-2-yl]thiazole-4-carbonyl]phenoxy]butyl-methyl-amino]ethoxy]-5,7-dimethyl-1-adamantyl]methyl]-5-methyl-pyrazol-4-yl]pyridine-2-carboxylic acid]: in the assay with MOLT-4 cells, the midpoint of inhibition, the IC50, lay at 4.54 nM.
Same read-out and setting: as for `CN[C@@H](C)C(=O)N[C@H](C(=O)N1CCC[C@H]1c1nc(C(=O)c2cccc(OCCCCCCCCCCCCCCN(C)CCOC34CC5(C)CC(C)(CC(Cn6ncc(-c7ccc(N8CCCc9c8nnc(Nc8nc%10ccccc%10s8)c9C)nc7C(=O)O)c6C)(C5)C3)C4)c2)cs1)C1CCCCC1` [Example 100, 6-[3-(1,3-benzothiazol-2-ylamino)-4-methyl-6,7-dihydro-5H-pyrido[2,3-c]pyridazin-8-yl]-3-[1-[[3-[2-[14-[3-[2-[(2S)-1-[(2S)-2-cyclohexyl-2-[[(2S)-2-(methylamino)propanoyl]amino]acetyl]pyrrolidin-2-yl]thiazole-4-carbonyl]phenoxy]tetradecyl-methyl-amino]ethoxy]-5,7-dimethyl-1-adamantyl]methyl]-5-methyl-pyrazol-4-yl]pyridine-2-carboxylic acid], the figure is 8.41 nM.

(Values after patent US20240376094A2, “SELECTIVE BCL-XL PROTAC COMPOUNDS AND METHODS OF USE” (Les Laboratoires Servier, priority 2021, published 2024).)
